Source: patent US11051513B2, “Pyridone compounds and agricultural and horticultural fungicides containing the same as active ingredients” (MITSUI CHEMICALS AGRO, INC., priority 2017, dated 2021)

How the values were obtained:
[1] = test system: Colletotrichum orbiculare; test: Test Example H: Anthracnose on cucumber; settings: in Cucumis sativus, read-out: control value
Description: (§1) Disease development in Test Examples described below was evaluated in increments of 0.05 by setting 0 as no incidence of disease and 3 as disease development in a plant of untreated group. Further, control values were calculated using the following equation based on disease development.
(§2) <Control Value> Control value=100{1−(n/3)}
(§3) n=Disease development of each treated group
Seeds of a test plant (cucumber variety: Sagami Hanjiro) were planted and cultivated until the first leaf appeared. In the test, the inventive compounds were dissolved into a dimethyl sulfoxide-methanol mixture solution (volume ratio: 9/1), and the resultant solutions were diluted with well water to a concentration of 250 ppm. The thus-obtained dilutions were sprayed to the test plant (2.5 ml/pot). After the dilutions dried, a conidial suspension (2-4×10^5 conidia/ml) of Colletotrichum orbiculare was inoculated to the plant by spraying. After the inoculation, the plant was kept in a mist chamber at room temperature of 20 to 23° C. for about 24 hours to promote the onset of disease. The disease development was investigated 6 to 10 days after the inoculation, and the effectiveness of the dilutions was evaluated.

[2] = test system: Puccinia recondita; test: Test Example E: Brown rust on wheat; assay type: in vivo; settings: 250 ppm sprayed (2.5 ml/pot) on wheat (Norin 61), disease development 7 to 10 days after inoculation
[3] = test system: Magnaporthe grisea; test: whole plant or invertebrate; assay type: in vivo; settings: Pyricularia oryzae, in Oryza sativa, read-out: control value
[4] = test system: Alternaia brassicicola; test: Test Example C: Alternaria sooty spot on cabbage; settings: Brassica oleracea, read-out: control value
Description: as §1, §2, §3
Seeds of a test plant (cabbage variety: Shikidori) were planted and cultivated until the cotyledons extended. In the test, the inventive compounds were dissolved into a dimethyl sulfoxide-methanol mixture solution (volume ratio: 9/1), and the resultant solutions were diluted with well water to a concentration of 250 ppm. The thus-obtained dilutions were sprayed to the test plant (2.5 ml/pot). After the dilutions dried, a conidial suspension (4-8×10^5 conidia/ml) of Alternaia brassicicola was inoculated to the plant by spraying. After the inoculation, the plant was kept in a mist chamber at room temperature of 20 to 23° C. for about 48 hours to promote the onset of disease. The disease development was investigated 2 to 3 days after the inoculation, and the effectiveness of the dilutions was evaluated.

[5] = test system: Botrytis cinerea; test: Test Example B: Gray mold on tomato; settings: in Solanum lycopersicum, read-out: control value
Description: as §1, §2, §3
Seeds of a test plant (tomato variety: Oogata Fukuju) were planted and cultivated until three to five first leaves (true leaves) appeared. In the test, the inventive compounds were dissolved into a dimethyl sulfoxide-methanol mixture solution (volume ratio: 9/1), and the resultant solutions were diluted with well water to a concentration of 250 ppm. The thus-obtained dilutions were sprayed to the test plant (2.5 ml/pot). After the dilutions dried, a conidial suspension (4-8×10^5 conidia/ml) of Botrytis cinerea was inoculated to the plant by spraying. After the inoculation, the plant was kept in a mist chamber at room temperature of 20 to 23° C. for about 48 hours to promote the onset of disease. The disease development was investigated 2 to 3 days after the inoculation, and the effectiveness of the dilutions was evaluated.

[6] = test system: Blumeria graminis f. sp. hordei; test: Test Example D: Powdery mildew on barley; settings: in Hordeum vulgare, read-out: control value
Description: as §1, §2, §3
Seeds of a test plant (barley variety: Akashinriki) were planted and cultivated until the first leaves appeared. In the test, the inventive compounds were dissolved into a dimethyl sulfoxide-methanol mixture solution (volume ratio: 9/1), and the resultant solutions were diluted with well water to a concentration of 250 ppm. The thus-obtained dilutions were sprayed to the test plant (2.5 ml/pot). After the dilutions dried, conidia of Blumeria graminis f. sp. hordei were inoculated to the plant by shaking off. The disease development was investigated 6 to 10 days after the inoculation, and the effectiveness of the dilutions was evaluated.

Measured: pest or weed control at 250 ppm

CCN1C(=O)CCC(c2cc(F)cc(F)c2Cl)=C1c1ccc(F)cc1 [compound 11, 5-(2-chloro-3,5-difluorophenyl)-1-ethyl-6-(4-fluorophenyl)-3,4-dihydropyridin-2(1H)-one]
> 50%: all assays above

CCn1c(-c2ccc(F)cc2)c(-c2cc(F)cc(F)c2Cl)ccc1=O [compound 12, 5-(2-chloro-3,5-difluorophenyl)-1-ethyl-6-(4-fluorophenyl)pyridin-2(1H)-one]
> 50%: all assays above

CCn1c(-c2ccc(F)cc2)c(-c2cc(F)cc(F)c2Cl)cc(Cl)c1=O [compound 13, 3-chloro-5-(2-chloro-3,5-difluorophenyl)-1-ethyl-6-(4-fluorophenyl)pyridin-2(1H)-one]
> 50%: all assays above

CCn1c(-c2ccc(F)cc2)c(-c2cc(F)cc(F)c2Cl)cc(Br)c1=O [compound 14, 3-bromo-5-(2-chloro-3,5-difluorophenyl)-1-ethyl-6-(4-fluorophenyl)pyridin-2(1H)-one]
> 50%: all assays above

CCn1c(-c2ccc(F)cc2)c(-c2cc(F)cc(F)c2Cl)cc(C)c1=O [compound 27, 5-(2-Chloro-3,5-difluorophenyl)-1-ethyl-6-(4-fluorophenyl)-3-methylpyridin-2(1H)-one]
> 50%: all assays above

O=C1CCC(c2cc(F)cc(F)c2Cl)=C(c2ccc(F)cc2)N1CC(F)F [compound 29, 5-(2-chloro-3,5-difluorophenyl)-1-(2,2-difluoroethyl)-6-(4-fluorophenyl)-3,4-dihydropy ridin-2(1H)-one]
> 50%: [1] | [2] | [3] | [6]

O=c1ccc(-c2cc(F)cc(F)c2Cl)c(-c2ccc(F)cc2)n1CC(F)F [compound 30, 5-(2-chloro-3,5-difluorophenyl)-1-(2,2-difluoroethyl)-6-(4-fluorophenyl)pyridin-2(1H)-one]
> 50%: all assays above

O=c1c(Cl)cc(-c2cc(F)cc(F)c2Cl)c(-c2ccc(F)cc2)n1CC(F)F [compound 31, 3-chloro-5-(2-chloro-3,5-difluorophenyl)-1-(2,2-difluoroethyl)-6-(4-fluorophenyl)pyridin-2(1H)-one]
> 50%: all assays above

CCn1c(-c2ccc(F)cc2)c(-c2cc(OC)ccc2Cl)ccc1=O [compound 33, 5-(2-chloro-5-methoxyphenyl)-1-ethyl-6-(4-fluorophenyl)pyridin-2(1H)-one]
> 50%: all assays above

CCn1c(-c2ccc(F)cc2)c(-c2cc(OC)ccc2Cl)cc(Cl)c1=O [compound 44, 3-Chloro-5-(2-chloro-5-methoxyphenyl)-1-ethyl-6-(4-fluorophenyl)pyridin-2(1H)-one]
> 50%: all assays above

CCn1c(-c2ccc(F)cc2)c(-c2cc(OCOC)ccc2Cl)cc(Cl)c1=O [compound 248, 3-chloro-5-(2-chloro-5-(methoxymethoxy)phenyl)-1-ethyl-6-(4-fluorophenyl)pyridin-2(1H)-one]
> 50%: all assays above

CCn1c(-c2ccc(F)cc2)c(-c2cccnc2Cl)ccc1=O [compound 288, 2′-chloro-1-ethyl-2-(4-fluorophenyl)-[3,3′-bipyridin]-6(1H)-one]
> 50%: all assays above

CCn1c(-c2ccc(F)cc2)c(-c2cccnc2Cl)cc(Cl)c1=O [compound 291, 2′,5-dichloro-1-ethyl-2-(4-fluorophenyl)-[3,3′-bipyridin]-6(1H)-one]
> 50%: all assays above

CCn1c(-c2ccc(F)cc2)c(-c2cc(O)ccc2Cl)cc(Cl)c1=O [compound 340, 3-chloro-5-(2-chloro-5-hydroxyphenyl)-1-ethyl-6-(4-fluorophenyl)pyridin-2(1H)-one]
> 50%: all assays above
